43 compounds from patent publication US7528138B2, “Pyrazolo[1,5-a]pyrimidines useful as inhibitors of protein kinases” (Vertex Pharmaceuticals Incorporated, priority 2004, dated 2009) can be followed below.

One assay addresses T1, Itk (Homo sapiens, UniProt Q08881).
T1 sequence (Q08881 1-620): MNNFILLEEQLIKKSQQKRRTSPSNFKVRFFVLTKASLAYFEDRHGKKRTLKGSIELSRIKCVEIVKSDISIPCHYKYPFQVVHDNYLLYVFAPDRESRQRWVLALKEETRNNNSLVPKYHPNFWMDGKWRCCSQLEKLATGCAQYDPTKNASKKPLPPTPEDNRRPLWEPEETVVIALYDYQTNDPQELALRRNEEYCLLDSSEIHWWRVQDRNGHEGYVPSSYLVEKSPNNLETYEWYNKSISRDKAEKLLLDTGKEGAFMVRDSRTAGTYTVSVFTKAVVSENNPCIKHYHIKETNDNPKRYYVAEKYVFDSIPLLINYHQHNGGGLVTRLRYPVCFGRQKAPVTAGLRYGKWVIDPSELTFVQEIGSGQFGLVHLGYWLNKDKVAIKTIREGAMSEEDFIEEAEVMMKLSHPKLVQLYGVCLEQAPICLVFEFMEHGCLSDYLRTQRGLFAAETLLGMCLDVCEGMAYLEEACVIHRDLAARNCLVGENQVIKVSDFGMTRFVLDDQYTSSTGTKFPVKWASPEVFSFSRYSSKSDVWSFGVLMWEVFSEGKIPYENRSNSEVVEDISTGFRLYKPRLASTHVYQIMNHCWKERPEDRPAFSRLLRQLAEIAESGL
Briefly: ITK Inhibition Assay (Radiometric), radioactive-phosphate incorporation. It is filed as biochemical. As to conditions: enzyme inhibition data (Ki), Table 11; radiometric or UV assay not stated. An outline of the steps:
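Radiometric 33P incorporation into SAM68 peptide (D332-443) with filter capture and scintillation counting; 10 min pre-incubation then 10 min reaction at 25° C. IC50 format: 30 nM Itk, 15 μM ATP, 2 μM peptide, HEPES pH 7.5. Ki(app) format: 50 nM Itk, 7.5 μM ATP, 3 μM peptide, MOPS pH 7.0.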

The target in another assay is T2, Aurora-2 (Homo sapiens, UniProt O14965).
T2 sequence (O14965 1-403): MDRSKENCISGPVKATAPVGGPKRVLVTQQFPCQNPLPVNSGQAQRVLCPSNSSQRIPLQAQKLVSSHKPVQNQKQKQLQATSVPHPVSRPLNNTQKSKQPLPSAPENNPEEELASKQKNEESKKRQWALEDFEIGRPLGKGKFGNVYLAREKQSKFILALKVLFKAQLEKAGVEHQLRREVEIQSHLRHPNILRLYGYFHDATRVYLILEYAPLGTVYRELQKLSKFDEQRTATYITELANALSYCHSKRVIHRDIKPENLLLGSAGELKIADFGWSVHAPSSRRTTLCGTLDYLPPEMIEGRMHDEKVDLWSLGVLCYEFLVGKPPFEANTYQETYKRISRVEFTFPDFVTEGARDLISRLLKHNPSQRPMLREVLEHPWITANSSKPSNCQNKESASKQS
The experiment in a line: Aurora-A (Aurora-2) Inhibition Assay, coupled enzyme assay. As to conditions: enzyme inhibition data (Ki), Table 11; read-out: AurA Ki. It is filed as biochemical. An outline of the steps: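 Coupled pyruvate kinase/lactate dehydrogenase assay following NADH, pH 7.5 Hepes, 40 nM Aurora-2, 400 μM ATP and 570 μM Kemptide at 30 °C. Compound (top final typically 7.5 μM) preincubated 10 min; initial rates over 10 min; IC50 and Ki by non-linear regression.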

Where only a bound is given, the exact number is not on record here.

Regarding `CC(C)N(C)C(=O)c1ccc(-c2cnc3c(-c4ccccn4)c(N)nn3c2)nc1` [Compound V-67], the Ki at Itk is 0.5 to 5 µM; on Aurora-2, less than 0.5 µM.
For `Nc1nn2cc(-c3ccc(C(=O)N4CCCC(CO)C4)cn3)cnc2c1-c1ccccn1` (centres unmarked) [Compound V-71], in that order: less than 0.5 µM and less than 0.5 µM.
Consider `Cc1cnc2c(-c3cc(NC4CCN(Cc5ccccc5)CC4)ncn3)c(N)nn2c1` [Compound V-285], for which the Ki on Itk and on Aurora-2 was 0.5 to 5 µM throughout.
`Cc1cnc2c(-c3cc(NC4CC4)ncn3)c(N)nn2c1` [Compound V-289]: the Ki at Itk and at Aurora-2 was 0.5 to 5 µM each time.
For the compound `Nc1nn2cc(-c3ccc(C(=O)N4CCC(N)C4)cn3)cnc2c1-c1ccccn1` (centres unmarked) [Compound V-81], the Ki at Itk and on Aurora-2 was less than 0.5 µM throughout.
In the case of `CN1CCN(C(=O)c2cccc(-c3cnc4c(-c5ccccn5)c(N)nn4c3)c2)CC1` [Compound V-55], the Ki on Itk and on Aurora-2 was 0.5 to 5 µM throughout.
Consider `CN1CCCN(C(=O)c2ccc(-c3cnc4c(-c5ccccn5)c(N)nn4c3)nc2)CC1` [Compound V-70], for which the Ki at Itk and on Aurora-2 was less than 0.5 µM each time.
As for `CCOC(=O)c1c(N)nn2cc(-c3ccc(Cl)cc3)cnc12` [Compound V-24], the inhibitory constant (Ki) on Itk and on Aurora-2 was 0.5 to 5 µM throughout.
For `COC(=O)N1CCN(C(=O)c2ccc(-c3cnc4c(-c5ccccn5)c(N)nn4c3)nc2)CC1` [Compound V-64], the Ki at Itk and at Aurora-2 was less than 0.5 µM each time.
Turning to `CCCN(CCO)C(=O)c1ccc(-c2cnc3c(-c4ccccn4)c(N)nn3c2)nc1` [Compound V-92], the inhibition constant Ki at Itk and at Aurora-2 was less than 0.5 µM in each case.
As to `Cc1cnc2c(-c3cc(NC(C)C)ncn3)c(N)nn2c1` [Compound V-273], the inhibitory constant (Ki) at Itk and on Aurora-2 was 0.5 to 5 µM each time.
For the compound `COCCN1CCN(C(=O)c2ccc(-c3cnc4c(-c5ccccn5)c(N)nn4c3)nc2)CC1` [Compound V-68], the Ki at Itk and at Aurora-2 was less than 0.5 µM each time.
For `CCOC(=O)N1CCN(C(=O)c2ccc(-c3cnc4c(-c5ccccn5)c(N)nn4c3)nc2)CC1` [Compound V-76], the Ki at Itk and on Aurora-2 was less than 0.5 µM in each case.
On to `CC[C@H](C)Nc1cc(-c2c(N)nn3cc(C)cnc23)ncn1` [Compound V-294], for which the Ki on Itk and at Aurora-2 was 0.5 to 5 µM in each case.
As for `Cc1cnc2c(-c3cc(NCC4CC4)ncn3)c(N)nn2c1` [Compound V-277], the Ki at Itk and at Aurora-2 was 0.5 to 5 µM in each case.
As for `CCN(CCCCN)C(=O)c1ccc(-c2cnc3c(-c4ccccn4)c(N)nn3c2)nc1` [Compound V-74], the inhibition constant Ki is less than 0.5 µM on Itk and 0.5 to 5 µM on Aurora-2.
For `Nc1nn2cc(Cl)cnc2c1-c1ccccn1` [Compound V-280], in that order: 0.5 to 5 µM and less than 0.5 µM.
The corresponding values for `CN(CCN)C(=O)c1ccc(-c2cnc3c(-c4ccccn4)c(N)nn3c2)nc1` [Compound V-94] are less than 0.5 µM and 0.5 to 5 µM.
For `Nc1nn2cc(-c3ccc(C(=O)N4CCC[C@@H]4CO)cn3)cnc2c1-c1ccccn1` [Compound V-93], in that order: less than 0.5 µM and less than 0.5 µM.
Take `Nc1nn2cc(-c3ccc(C(=O)NCCF)cn3)cnc2c1-c1ccccn1` [Compound V-73]: the inhibitory constant (Ki) at Itk and at Aurora-2 was 0.5 to 5 µM throughout.
Consider `COc1ccccc1Nc1cc(-c2c(N)nn3cc(C)cnc23)ncn1` [Compound V-274], for which the Ki was less than 0.5 µM on Itk and 0.5 to 5 µM on Aurora-2.
The corresponding values for `CN(C)CCNC(=O)c1ccc(-c2cnc3c(-c4ccccn4)c(N)nn3c2)nc1` [Compound V-65] are less than 0.5 µM and 0.5 to 5 µM.
`Nc1nn2cc(-c3ccc(C(=O)N4CCCCC4CCO)cn3)cnc2c1-c1ccccn1` (centres unmarked) [Compound V-82]: the Ki was less than 0.5 µM on Itk and 0.5 to 5 µM at Aurora-2.
The corresponding values for `COCCN(C)C(=O)c1ccc(-c2cnc3c(-c4ccccn4)c(N)nn3c2)nc1` [Compound V-75] are 0.5 to 5 µM and less than 0.5 µM.
For `Cc1cnc2c(-c3cc(N[C@@H](C)CO)ncn3)c(N)nn2c1` [Compound V-295], the Ki on Itk and at Aurora-2 was 0.5 to 5 µM each time.
As for `Cc1cnc2c(-c3cc(N[C@H](C)CO)ncn3)c(N)nn2c1` [Compound V-293], the inhibition constant Ki on Itk and on Aurora-2 was 0.5 to 5 µM in each case.
In the case of `Nc1nn2cc(-c3ccc(C(=O)N4CCSCC4)cn3)cnc2c1-c1ccccn1` [Compound V-87], the Ki at Itk and at Aurora-2 was less than 0.5 µM each time.
Take `CCN(C(=O)c1c(N)nn2cc(-c3ccncn3)cnc12)C(C)C` [Compound V-33]: the Ki on Itk and on Aurora-2 was 0.5 to 5 µM each time.
With `CCN(CCC#N)C(=O)c1ccc(-c2cnc3c(-c4ccccn4)c(N)nn3c2)nc1` [Compound V-90], the Ki at Itk and on Aurora-2 was less than 0.5 µM each time.
Take `Nc1nn2cc(N3CCOCC3)cnc2c1-c1ccccn1` [Compound V-57]: the inhibition constant Ki on Itk and on Aurora-2 was 0.5 to 5 µM throughout.
Take `Nc1nn2cc(-c3ccc(C(=O)N4CCC(CCO)CC4)cn3)cnc2c1-c1ccccn1` [Compound V-83]: the inhibition constant Ki on Itk and at Aurora-2 was less than 0.5 µM each time.
Consider `CCN(CCN)C(=O)c1ccc(-c2cnc3c(-c4ccccn4)c(N)nn3c2)nc1` [Compound V-62], for which the Ki at Itk was less than 0.5 µM; on Aurora-2, 0.5 to 5 µM.
The corresponding values for `CSc1cc(-c2c(N)nn3cc(C)cnc23)ncn1` [Compound V-281] are 0.5 to 5 µM and 0.5 to 5 µM.
Take `CCN(C)C(=O)c1ccc(-c2cnc3c(-c4ccccn4)c(N)nn3c2)nc1` [Compound V-89]: the inhibition constant (Ki) at Itk and at Aurora-2 was less than 0.5 µM throughout.
For the compound `Cc1cnc2c(-c3cc(NCC4CCCO4)ncn3)c(N)nn2c1` (centres unmarked) [Compound V-278], the inhibition constant Ki on Itk and at Aurora-2 was 0.5 to 5 µM each time.
Regarding `CC(C)N1CCN(c2ccc(-c3cnc4c(-c5ccccn5)c(N)nn4c3)cc2)CC1` [Compound V-51], the Ki at Itk is less than 0.5 µM; at Aurora-2 it was 0.5 to 5 µM.
For `COc1ccncc1-c1cnc2c(-c3ccccn3)c(N)nn2c1` [Compound V-22], in that order: 0.5 to 5 µM and 0.5 to 5 µM.
The corresponding values for `CCCN(CCCN)C(=O)c1ccc(-c2cnc3c(-c4ccccn4)c(N)nn3c2)nc1` [Compound V-85] are less than 0.5 µM and 0.5 to 5 µM.
For `CN(C)CCNC(=O)c1cccc(-c2cnc3c(-c4ccccn4)c(N)nn3c2)c1` [Compound V-54], in that order: 0.5 to 5 µM and 0.5 to 5 µM.
For `Cc1cnc2c(-c3cc(N4CCCCC4)ncn3)c(N)nn2c1` [Compound V-276], the results for the Ki at Itk and at Aurora-2 were less than 0.5 µM and 0.5 to 5 µM, respectively.
For `COc1ccc(-c2cnc3c(C#N)c(N)nn3c2)cc1` [Compound V-2], in that order: 0.5 to 5 µM and 0.5 to 5 µM.
As for `Nc1nn2cc(-c3ccc(C(=O)N4CCC4)cn3)cnc2c1-c1ccccn1` [Compound V-86], the inhibitory constant (Ki) at Itk and on Aurora-2 was 0.5 to 5 µM each time.
Turning to `Cc1cnc2c(-c3cc(NC4CCN(Cc5ccccc5)C4)ncn3)c(N)nn2c1` (centres unmarked) [Compound V-286], the Ki at Itk and at Aurora-2 was 0.5 to 5 µM in each case.

What is called Ki is a dissociation constant, usually derived from enzyme kinetics or from competition with a known ligand.
